Results: ChEMBL document CHEMBL1201862, “PubChem BioAssay data set” (2004)
Values joined by “and” are separate entries in the source; they are usually repeats but may differ in a detail not shown here. Equal values may be shown once. Where a name gives a salt, the structure may show the parent alone.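 A five-concentration, 48-hour dose response in 96-well plates underlies each endpoint, interpolated linearly between surrounding concentrations. Abbreviation: GI50, concentration required for 50% inhibition of growth.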 Active and inactive are the calls of the source. Cut-off read from the data, not from the text of the source: active = GI50 up to about 1.1 µM and inactive = higher.

How the values were obtained:
Experiment in all cases: inhibition of tumour cell growth, NCI panel, 48 h
SF-268 = test system: SF-268
UO-31 = test system: UO-31
OVCAR-5 = test system: OVCAR-5
DLD-1 = test system: DLD-1
KM12 = test system: KM12
786-0 = test system: 786-0
XF498 = test system: XF498
SNB-75 = test system: SNB-75
SR = test system: SR
DMS-273 = test system: DMS-273
HL-60 = test system: HL-60
KM-20L2 = test system: KM-20L2
HOP-18 = test system: HOP-18
SF-295 = test system: SF-295
MDA-MB-435 = test system: MDA-MB-435
MDA-N = test system: MDA-N
T47D = test system: T47D
BT-549 = test system: BT-549
MDA-MB-231 = test system: MDA-MB-231

Row | Structure (SMILES) | GI50 (SF-268) | GI50 (UO-31) | GI50 (OVCAR-5) | GI50 (DLD-1) | GI50 (KM12) | GI50 (786-0) | GI50 (XF498) | GI50 (SNB-75) | GI50 (SR) | GI50 (DMS-273) | GI50 (HL-60) | GI50 (KM-20L2) | GI50 (HOP-18) | GI50 (SF-295) | GI50 (MDA-MB-435) | GI50 (MDA-N) | GI50 (T47D) | GI50 (BT-549) | GI50 (MDA-MB-231)
1 | C=CC(OCC)(OCC)OCC | > 100 µM (inactive) | > 100 µM (inactive) | > 100 µM (inactive) | 35.2 µM (inactive) | > 100 µM (inactive) | 23.5 µM (inactive) | > 100 µM (inactive) | > 100 µM (inactive) | 29.9 µM (inactive) | 18.2 µM (inactive) | > 100 µM (inactive) | > 100 µM (inactive) | > 100 µM (inactive) | > 100 µM (inactive) | – | – | – | – | –
2 | CCOC(=O)CNC(=O)N(CC)C12CC3CC(CC(C3)C1)C2 | 143 µM (inactive) | 149 µM (inactive) | 161 µM (inactive) | 34.7 µM (inactive) | 125 µM (inactive) | – | 125 µM (inactive) | 131 µM (inactive) | – | 132 µM (inactive) | 107 µM (inactive) | 117 µM (inactive) | 179 µM (inactive) | 136 µM (inactive) | – | – | – | – | –
3 | NC(=S)N/N=C/c1ccc(OC(=O)COc2ccccc2Cl)cn1 | 17.9 µM (inactive) | 36.8 µM (inactive) | 44.4 µM (inactive) | 33 µM (inactive) | 75.7 µM (inactive) | – | 40 µM (inactive) | > 54.6 µM (inactive) | – | 21 µM (inactive) | 18.4 µM (inactive) | 40 µM (inactive) | 39.3 µM (inactive) | > 62.7 µM (inactive) | – | – | – | – | –
4 | NC(=O)Nc1cc(O)ccc1/N=N/c1ccc(S(=O)(=O)Nc2ccccn2)cc1 | > 100 µM (inactive) | > 100 µM (inactive) | > 100 µM (inactive) | – | > 100 µM (inactive) | – | > 100 µM (inactive) | > 100 µM (inactive) | – | > 100 µM (inactive) | > 100 µM (inactive) | > 100 µM (inactive) | > 100 µM (inactive) | > 100 µM (inactive) | – | – | – | – | –
5 | CC(=O)N/C(=C\c1ccc(/C=C(\NC(C)=O)C2=NC3C(=O)c4ccccc4C(=O)C3N2)cc1)C1=NC2C(=O)c3ccccc3C(=O)C2N1 (stereo not drawn) | 5.7 µM (inactive) | 2.97 µM (inactive) | 75 µM (inactive) | 7.71 µM (inactive) | 3.63 µM (inactive) | – | > 100 µM (inactive) | 6.98 µM (inactive) | – | 19.6 µM (inactive) | 3.96 µM (inactive) | 39.7 µM (inactive) | 71.3 µM (inactive) | 68.2 µM (inactive) | – | – | – | – | –
6 | COc1cc(OC)c(SSCCCCS(=O)O)c(OC)c1 | 15.5 µM (inactive) | 18.3 µM (inactive) | 16.6 µM (inactive) | 17.5 µM (inactive) | 14.9 µM (inactive) | 18.7 µM (inactive) | 13.9 µM (inactive) | 10.6 µM (inactive) | – | 16.7 µM (inactive) | 3.91 µM (inactive) | 18.7 µM (inactive) | 18 µM (inactive) | 13.6 µM (inactive) | – | – | – | – | –
7 | CCC/C=C/C=C\C(=O)O[C@@H]1[C@@H](C)[C@]2(O)[C@@H]3C=C(C)C(=O)[C@H]3CC(COC(C)=O)=C[C@H]2[C@@H]2C(C)(C)[C@]12OC(C)=O | 39.7 µM (inactive) | 46.5 µM (inactive) | 66.5 µM (inactive) | 16.7 µM (inactive) | 47.9 µM (inactive) | – | 7.29 µM (inactive) | 57.7 µM (inactive) | – | 22.6 µM (inactive) | 2.33 µM (inactive) | 44.4 µM (inactive) | 28 µM (inactive) | 6.64 µM (inactive) | – | – | – | – | –
8 | CSc1sc(=S)sc1SC | > 100 µM (inactive) | > 100 µM (inactive) | > 100 µM (inactive) | > 100 µM (inactive) | > 100 µM (inactive) | – | > 100 µM (inactive) | 46.9 µM (inactive) | – | 77.8 µM (inactive) | > 31.6 µM (inactive) | > 100 µM (inactive) | > 100 µM (inactive) | > 100 µM (inactive) | – | – | – | – | –
9 | COC(=O)C1=CC[C@@H]2C(C(=O)O)=CO[C@@H](OC3OC(CO)C(O)C(O)C3O)[C@H]12 (stereo partly drawn) | > 300 µM (inactive) | > 300 µM (inactive) | > 300 µM (inactive) | > 189 µM (inactive) | > 300 µM (inactive) | – | > 228 µM (inactive) | > 300 µM (inactive) | – | > 300 µM (inactive) | > 300 µM (inactive) | > 300 µM (inactive) | 13.7 µM (inactive) | > 150 µM (inactive) | – | – | – | – | –
10 | CCC1OC(=O)C(C)C(OC2CC(C)(O)C(O)C(C)O2)C(C)C(O)C(C)(O)CC(C)C(=O)C(C)C(O)C1C (stereo not drawn) | > 300 µM (inactive) | > 300 µM (inactive) | > 292 µM (inactive) | > 300 µM (inactive) | 225 µM (inactive) | – | > 300 µM (inactive) | > 300 µM (inactive) | – | > 300 µM (inactive) | > 300 µM (inactive) | > 300 µM (inactive) | > 300 µM (inactive) | > 300 µM (inactive) | – | – | – | – | –
11 | O=C(/C=C/c1ccc(Cl)c(Cl)c1)C1CCC(Cl)CC1 (stereo not drawn) | 19.5 µM (inactive) | 18.4 µM (inactive) | 17.4 µM (inactive) | 15.6 µM (inactive) | 19.2 µM (inactive) | 16.8 µM (inactive) | 16 µM (inactive) | 19.8 µM (inactive) | – | 16.8 µM (inactive) | – | 20.7 µM (inactive) | 27.5 µM (inactive) | 21 µM (inactive) | – | – | – | – | –
12 | Nc1ccc2cc3ccc(N)cc3nc2c1 [PROFLAVINE SULFATE] | 1.32 µM (inactive) and 2.19 µM (inactive) | 690 nM (active) and 652 nM (active) | 3.05 µM (inactive) | 0.771 µM (active) | – | – | 1.53 µM (inactive) | 1.59 µM (inactive) and 1.16 µM (inactive) | 0.444 µM (active) | 0.839 µM (active) | 2.62 µM (inactive) and 1.67 µM (inactive) | 0.767 µM (active) | 2.76 µM (inactive) | 2.45 µM (inactive) and 1.94 µM (inactive) | 1.48 µM (inactive) | 1.21 µM (inactive) | 1.59 µM (inactive) | 3.19 µM (inactive) | 1.62 µM (inactive)
13 | C=C1C(=O)OC2CC(C)C3C4OC4C(O)C3(C)C(O)C12 (stereo not drawn) | 23.8 µM (inactive) | 80.2 µM (inactive) | 64 µM (inactive) | 27.3 µM (inactive) | 23.5 µM (inactive) | – | 22.2 µM (inactive) | 41.7 µM (inactive) | – | 18.4 µM (inactive) | 13.8 µM (inactive) | 14.1 µM (inactive) | 24.4 µM (inactive) | 41 µM (inactive) | – | – | – | – | –
